Results: patent US20160109450A1, “METHOD FOR MONITORING METASTASIS OF CANCER CELLS USING CELLS CULTURED IN THREE DIMENSIONAL COLLAGEN ENVIRONMENT” (Medicinal Bioconvergence Research Center, priority 2013, published 2016)

Tests used:
MDA-MB-231 cell line [1] = settings: ERK inhibitor treated cells
MDA-MB-231 cell line [2] = experiment: ChIP (chromatin immunoprecipitation) on snail1 and cortactin promoters; type: cell-based, human; settings: ChIP with anti-pS63 c-Jun antibody
Experimental: The cells were then treated with 1.5 M glycine, followed by washing with cold PBS containing protease inhibitor. The fixed cells were loaded in SDS-lysis buffer supplemented with protease/kinase inhibitor, followed by sonication for lysis. The lysed sample proceeded to […] at 13000 rpm for 3 minutes, and the supernatant was transferred into a microcentrifuge tube, followed by sonication again for chromatin fragmentation. Supernatant was obtained by centrifugation, some of which was transferred into input and some of which was reacted with the antibodies of phospho-Ser^63-c-Jun, snail1, and smad 2/3/4 (cell signaling technology, USA) at 4° C. for at least 18 hours. Upon completion of the reaction, the tube was taken out from 4° C., to which sepharose beads coated with protein A and G (1:1), followed by reaction at 4° C. for 4 hours. The tube was then washed with RIPA/150 mM NaCl solution and washed again with RIPA/350 mM NaCl solution. The washed sample was washed again with LiCl washing buffer, which was washed with TE (Tris/EDTA) solution three times. TE solution was added thereto, followed by reaction at 65° C. for 15 hours. On the 3rd day of the reaction, RNase A was added to each input and sample, followed by reaction at 37° C. Proteinase K was added thereto, followed by reaction at 55° C. for 1 hour. […]

SMILES | cell growth (MDA-MB-231 cell line [1]) | binding of c-Jun to snail1 promoter region (MDA-MB-231 cell line [2])
N#CC(=C(/N)Sc1ccccc1N)/C(C#N)=C(/N)Sc1ccccc1N [ERK inhibitor] | did not grow normally but instead showed dying proneness | 
Oc1c2ccccc2c2c3c(cccc13)N=N2 [SP600125] |  | did not bind
